Measurements from publication PMC1079851, “Cloning of the koi herpesvirus (KHV) gene encoding thymidine kinase and its use for a highly sensitive PCR based diagnosis” (BMC Microbiology, 2005).

Target: T1, KHV TK (recombinant thymidine kinase) (Cyprinid herpesvirus 3, UniProt Q8B3A9)
T1 construct: gene CyHV3_ORF55; E. coli ER2566, chitin column
Assay: DE-81 filter paper radiometric kinase assay
Format: biochemical
Conditions: ATP 10.0 mM, MgCl2 2.0 mM, Tris-Cl 140 mM, 37 °C; substrate 5-30 mM; labelled compound (methyl-3H)

Cc1cn([C@H]2C[C@H](O)[C@@H](CO)O2)c(=O)[nH]c1=O [methyl-3H Thymidine (dThd)]
DE-81 filter paper radiometric kinase assay: the enzyme is specifically active using methyl-^3H Thymidine (dThd)
